Here are results for 23 compounds from the Deep4Chem optical property database.

A short description of the first data set: solvent given as SMILES. The following applies: in C1CCCCC1.
`CCCC1(CCC)c2cc(-c3cccc(Cc4ccc(/C=C/c5ccccc5)cc4)c3)ccc2-c2ccc(-c3cccc(Cc4ccc(/C=C/c5ccccc5)cc4)c3)cc21` showed an emission maximum of 359 nm.
Regarding `Cc1nn(-c2ccccc2)c(C2=NN(c3ccc(Br)cc3)[C@@H](c3ccccc3)[C@@H]2c2ccccc2)c1C#N`, the emission maximum came out at 468 nm.
`CN(C)c1ccc2c(c1)-c1ccccc1C2=O` came in with an emission maximum of 491 nm.
Compound `C[Si](C)(c1c2ccccc2cc2ccccc12)[Si](C)(C)c1c2ccccc2cc2ccccc12` came in with an emission maximum of 425 nm.
As to `CCC(C)(C)c1ccc2c(c1)C(CC)(CC)c1cc(-c3ccc4c(c3)C(CC)(CC)c3cc(C(C)(C)CC)ccc3-4)ccc1-2`, the emission maximum is listed as 371 nm.
Compound `CN(C)c1ccc2nc(-c3ccc(C(=O)OC[C@H](NC(=O)OC(C)(C)C)C(=O)OCc4ccccc4)cc3)sc2c1` came in with an emission maximum of 456 nm.

The same data set, now with this note: in C1CCOC1.
`Cc1nn(-c2ccccc2)c(C2=NN(c3ccc(Br)cc3)[C@@H](c3ccccc3)[C@@H]2c2ccccc2)c1C#N` showed an emission maximum of 483 nm.
The compound `COc1ccc(/N=N/c2c(O)c3ccccc3n(C)c2=O)c(S(=O)(=O)O)c1` came in with an emission maximum of 527 nm.
Compound `CC(C)(C)c1ccc(-c2nc(-c3ccc(C(C)(C)C)cc3)nc(-c3cc(C#N)c(-n4c5ccccc5c5c6oc7ccccc7c6ccc54)c(C#N)c3)n2)cc1` registered an emission maximum of 504.66 nm.
For the compound `COC(=O)C1(C(=O)OC)Cc2c(C#Cc3ccc(OC)cc3)c(-c3ccc(OC)cc3)c3c(-c4ccccc4)c(-c4ccccc4)c(-c4ccccc4)c(-c4ccccc4)c3c2C1`, the emission maximum is on record as 421.77 nm.
Same read-out and setting: with `N#Cc1c(N2CCCCC2)cc(-c2cccc3ccccc23)c2c1-c1ccccc1C2=O` the figure was 526 nm.
In the case of `CCn1c2ccccc2c2cc(-c3cc(-c4ccc5c(c4)c4ccccc4n5CC)nc(-c4ccc(C#N)cc4)n3)ccc21`, the emission maximum is 408 nm.

Still in this data set, the particulars now being: in C1COCCO1.
`COc1ccc(-c2nc(N)nc(C#N)c2C#N)cc1OC` showed an emission maximum of 428 nm.
Take `Cc1nn(-c2ccccc2)c(C2=NN(c3ccc(Br)cc3)[C@@H](c3ccccc3)[C@@H]2c2ccccc2)c1C#N`: the emission maximum is listed as 481 nm.
In turn, `CC(=O)Nc1ccc(C2=C/C(=C\c3ccc(C#N)cc3)C(=O)N2)cc1` gave an emission maximum of 584 nm.

The same data set, now with this note: in CC1CCCCC1.
As for `COC(=O)C(NC(=O)OC(C)(C)C)c1ccc2oc(-c3ccc(C#N)cc3)nc2c1` (centres undefined), the emission maximum came out at 342 nm.

Staying with this data set, now noted: in CC#N.
Regarding `COc1ccc(-c2nc(N)nc(C#N)c2C#N)cc1OC`, the emission maximum was 456 nm.
`CCN(CC)c1ccc(/C=N/CC/N=C/c2ccc(N(CC)CC)cc2O)c(O)c1` displayed an emission maximum of 415 nm.
As to `Cc1nn(-c2ccccc2)c(C2=NN(c3ccc(Br)cc3)[C@@H](c3ccccc3)[C@@H]2c2ccccc2)c1C#N`, the emission maximum is given as 491 nm.
`COC(=O)C(NC(=O)OC(C)(C)C)c1ccc2oc(-c3ccc(C#N)cc3)nc2c1` (centres undefined) registered an emission maximum of 384 nm.
With `CN(C)c1ccc2c(c1)-c1ccccc1C2=O`, the emission maximum came out at 557 nm.
The compound `C[Si](C)(c1c2ccccc2cc2ccccc12)[Si](C)(C)c1c2ccccc2cc2ccccc12` yielded an emission maximum of 425 nm.
As for `CN(C)c1ccc2nc(-c3ccc(C(=O)OC[C@H](NC(=O)OC(C)(C)C)C(=O)OCc4ccccc4)cc3)sc2c1`, the emission maximum came out at 568 nm.
Take `CC1=C(C#Cc2ccccc2)C2=Cc3c(C#Cc4ccccc4)c(C)c(C)n3[B-](F)(F)[N+]2=C1C`: the emission maximum worked out at 579 nm.
On the same count and under the same terms, with `F[B-]1(F)n2c(-c3ccccc3)cc(-c3ccccn3)c2N=C2C(c3ccccn3)=CC(c3ccccc3)=[N+]21` the figure was 682 nm.

Still in this data set, the particulars now being: in CC(C)(C)O.
In turn, `COCCOCCOc1ccc(OCCOCCOC)c(C=O)c1` showed an emission maximum of 444 nm.

The data set is the same for the next values; noted with them: in CC(C)=O.
Take `COc1ccc(-c2nc(N)nc(C#N)c2C#N)cc1OC`: the emission maximum was 430 nm.
`COc1ccc(/N=N/c2c(O)c3ccccc3n(C)c2=O)c(S(=O)(=O)O)c1` registered an emission maximum of 528 nm.

Still in this data set, the particulars now being: in CC(C)CO.
Compound `COCCOCCOc1ccc(OCCOCCOC)c(C=O)c1` showed an emission maximum of 453 nm.

The same data set, now with this note: in CC(C)O.
Consider `COCCOCCOc1ccc(OCCOCCOC)c(C=O)c1`, for which the emission maximum amounted to 454 nm.
In the case of `CN(C)c1ccc2nc(-c3ccc(C(=O)OC[C@H](NC(=O)OC(C)(C)C)C(=O)OCc4ccccc4)cc3)sc2c1`, the emission maximum was found to be 558 nm.

The same data set, now with this note: in CCCCCC.
Take `CC(C)[Si](C#Cc1c2ccccc2c(C#C[Si](C(C)C)(C(C)C)C(C)C)c2nc3ccccc3nc12)(C(C)C)C(C)C`: the emission maximum came to 577 nm.

The same data set, now with this note: in CCCCCCC.
Consider `Cc1nn(-c2ccccc2)c(C2=NN(c3ccc(Br)cc3)[C@@H](c3ccccc3)[C@@H]2c2ccccc2)c1C#N`, for which the emission maximum worked out at 467 nm.

The data set is the same for the next values; noted with them: in CCCCO.
Take `COCCOCCOc1ccc(OCCOCCOC)c(C=O)c1`: the emission maximum came out at 456 nm.

Still in this data set, the particulars now being: in CCCO.
`COCCOCCOc1ccc(OCCOCCOC)c(C=O)c1` registered an emission maximum of 460 nm.

The data set is the same for the next values; noted with them: in CCO.
`COc1ccc(-c2nc(N)nc(C#N)c2C#N)cc1OC` displayed an emission maximum of 436 nm.
`COCCOCCOc1ccc(OCCOCCOC)c(C=O)c1` displayed an emission maximum of 461 nm.
Still for that read-out and setting: under `Cc1nn(-c2ccccc2)c(C2=NN(c3ccc(Br)cc3)[C@@H](c3ccccc3)[C@@H]2c2ccccc2)c1C#N` stands 493 nm.
With `CCOc1ccc2c(-c3nc(-c4ccccc4F)no3)cc(=O)oc2c1`, the emission maximum is 465 nm.
On the same count and under the same terms, under `CN(C)c1ccc2c(c1)-c1ccccc1C2=O` stands 592 nm; under `O=Cc1ccc(-c2ccc(-c3nc4ccccc4s3)c(O)c2)s1`, 540 nm.
In turn, `Nc1ccc2nc3c4ccccc4c(=[NH2+])cc-3oc2c1` yielded an emission maximum of 619 nm.

The data set is the same for the next values; noted with them: in CCOC(C)=O.
With `COc1ccc(-c2nc(N)nc(C#N)c2C#N)cc1OC`, the emission maximum was determined as 442 nm.
For the compound `COc1ccc(/N=N/c2c(O)c3ccccc3n(C)c2=O)c(S(=O)(=O)O)c1`, the emission maximum came to 525 nm.
With `CCn1c2ccccc2c2cc(-c3cc(-c4ccc5c(c4)c4ccccc4n5CC)nc(-c4ccc(C#N)cc4)n3)ccc21`, the emission maximum is 408 nm.

Still in this data set, the particulars now being: in CN(C)C=O.
`COCCOCCOc1ccc(OCCOCCOC)c(C=O)c1` registered an emission maximum of 424 nm.
For `Brc1ccc2[nH]c(-c3ccc(-c4ccc(-c5ccc(-c6nc7cc(Br)ccc7[nH]6)cc5)cc4)cc3)nc2c1`, the emission maximum stood at 410 nm.
Take `CCN(CC)c1ccc(/C=N/CC/N=C/c2ccc(N(CC)CC)cc2O)c(O)c1`: the emission maximum is recorded as 433 nm.
In the case of `Cc1nn(-c2ccccc2)c(C2=NN(c3ccc(Br)cc3)[C@@H](c3ccccc3)[C@@H]2c2ccccc2)c1C#N`, the emission maximum is 492 nm.
